# Patent US9796711B2, “Substituted pyrazolo[3,4-b]pyridin-6-carboxylic acids and method of use” (AbbVie S.àr.l., priority 2015, dated 2017)
# Tests used:
# ΔF508-CFTR [1] = target: T1, ΔF508-CFTR (Homo sapiens, UniProt P13569, DEL508-508); assay: CFTR cell surface levels using HRP-tagged ΔF508-CFTR expressing CFBE cells, intrinsic corrector capacity; assay type: cell-based; settings: HRP-tagged ΔF508-CFTR expressing CFBE cells, intrinsic corrector capacity (no co-corrector), 33° C., 20 hours; for EC50: read-out: EC50
# T1 construct: host or cells: CFBE41o-, doxycycline-inducible
# T1 sequence (P13569 with tags, fused parts or gaps DEL508-508): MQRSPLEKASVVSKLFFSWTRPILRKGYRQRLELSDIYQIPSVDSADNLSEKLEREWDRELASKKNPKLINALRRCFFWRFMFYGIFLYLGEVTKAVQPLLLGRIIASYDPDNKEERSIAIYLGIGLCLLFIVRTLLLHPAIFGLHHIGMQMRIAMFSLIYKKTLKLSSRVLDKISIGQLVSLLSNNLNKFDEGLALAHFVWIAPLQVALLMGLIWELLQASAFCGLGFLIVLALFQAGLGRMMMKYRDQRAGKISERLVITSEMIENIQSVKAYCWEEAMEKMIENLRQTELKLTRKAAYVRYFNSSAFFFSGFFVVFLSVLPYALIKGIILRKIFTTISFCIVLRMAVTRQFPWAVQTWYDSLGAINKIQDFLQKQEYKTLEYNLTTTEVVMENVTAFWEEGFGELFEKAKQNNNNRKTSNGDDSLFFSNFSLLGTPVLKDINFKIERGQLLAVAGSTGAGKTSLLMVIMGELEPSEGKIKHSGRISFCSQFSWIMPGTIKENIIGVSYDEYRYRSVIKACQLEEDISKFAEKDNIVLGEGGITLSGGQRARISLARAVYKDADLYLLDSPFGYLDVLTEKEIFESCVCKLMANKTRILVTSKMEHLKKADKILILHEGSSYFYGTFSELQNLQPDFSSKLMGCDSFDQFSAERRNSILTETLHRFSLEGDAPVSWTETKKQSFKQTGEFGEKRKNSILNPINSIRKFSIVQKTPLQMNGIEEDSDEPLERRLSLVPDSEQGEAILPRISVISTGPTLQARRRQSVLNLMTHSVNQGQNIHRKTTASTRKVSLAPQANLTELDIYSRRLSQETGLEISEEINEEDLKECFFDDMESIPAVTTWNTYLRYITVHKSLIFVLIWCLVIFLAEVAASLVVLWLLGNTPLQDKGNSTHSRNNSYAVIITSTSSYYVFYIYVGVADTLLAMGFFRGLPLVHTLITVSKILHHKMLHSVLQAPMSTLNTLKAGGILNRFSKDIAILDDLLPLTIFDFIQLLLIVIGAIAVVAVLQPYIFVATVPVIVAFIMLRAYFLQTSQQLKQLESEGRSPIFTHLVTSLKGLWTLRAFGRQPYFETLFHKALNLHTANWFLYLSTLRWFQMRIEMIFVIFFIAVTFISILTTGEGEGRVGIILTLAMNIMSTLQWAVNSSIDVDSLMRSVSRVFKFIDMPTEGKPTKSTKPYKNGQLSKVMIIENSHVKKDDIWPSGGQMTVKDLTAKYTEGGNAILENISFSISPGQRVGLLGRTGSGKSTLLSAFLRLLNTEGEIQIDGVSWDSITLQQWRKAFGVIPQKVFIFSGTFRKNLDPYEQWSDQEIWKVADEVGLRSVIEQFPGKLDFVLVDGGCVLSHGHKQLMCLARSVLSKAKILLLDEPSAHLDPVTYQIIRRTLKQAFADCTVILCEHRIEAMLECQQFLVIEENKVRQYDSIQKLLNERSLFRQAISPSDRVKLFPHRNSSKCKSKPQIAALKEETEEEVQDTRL
# How it was run: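 Here the cells express ΔF508-CFTR with horseradish peroxidase inserted in extracellular loop 4, so only rescued channel at the surface gives luminescent signal. Compounds act on their own, 20 h at the reduced temperature of 33 °C; values are percent activity relative to DMSO and a 3 μM corrector.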
# ΔF508-CFTR [2] = target: T1, ΔF508-CFTR; assay: CFTR cell surface levels using HRP-tagged ΔF508-CFTR expressing CFBE cells, in the presence of a co-corrector; assay type: cell-based; settings: HRP-tagged ΔF508-CFTR expressing CFBE cells, in the presence of 3 μM co-corrector; for EC50: read-out: EC50
# How it was run: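 Cells were seeded with 0.5 μg/mL doxycycline and held 68 h at 37 °C. Test compounds plus 3 μM co-corrector (final 0.1% DMSO) were then added for 20 h at 33 °C. Washed cells received HRP substrate, and luminescence was normalized between DMSO and 3 μM co-corrector controls.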
Structure (SMILES),% Activation (ΔF508-CFTR [1]),EC50 (ΔF508-CFTR [1]),% Activation (ΔF508-CFTR [2]),EC50 (ΔF508-CFTR [2])
"CCCCOC1CCN(c2cc(C(=O)O)nc3c2c(C(C)C)nn3-c2ccc(F)cc2)CC1 [compound 395, 4-(4-butoxypiperidin-1-yl)-1-(4-fluorophenyl)-3-(propan-2-yl)-1H-pyrazolo[3,4-b]pyridine-6-carboxylic acid]",223.6%,0.438 µM,480.35%,0.549 µM
"CC(C)COC1CCN(c2cc(C(=O)O)nc3c2c(C(C)C)nn3-c2ccc(F)cc2)CC1 [compound 396, 1-(4-fluorophenyl)-4-[4-(2-methylpropoxy)piperidin-1-yl]-3-(propan-2-yl)-1H-pyrazolo[3,4-b]pyridine-6-carboxylic acid]",209.3%,0.403 µM,409.8%,0.301 µM
"COC1(C)CCN(c2cc(C(=O)O)nc3c2c(C(C)C)nn3-c2ccc(F)cc2)CC1 [compound 397, 1-(4-fluorophenyl)-4-(4-methoxy-4-methylpiperidin-1-yl)-3-(propan-2-yl)-1H-pyrazolo[3,4-b]pyridine-6-carboxylic acid]",73.11%,0.645 µM,217.3%,0.299 µM
"CC(C)c1nn(-c2ccc(F)cc2)c2nc(C(=O)O)cc(N3CCC4(CCO4)CC3)c12 [compound 398, 1-(4-fluorophenyl)-4-(1-oxa-7-azaspiro[3.5]nonan-7-yl)-3-(propan-2-yl)-1H-pyrazolo[3,4-b]pyridine-6-carboxylic acid]",96.49%,1.29 µM,275.7%,0.737 µM
"CC(C)c1nn(-c2ccc(F)cc2)c2nc(C(=O)O)cc(N3CCCC(C(F)F)C3)c12 (stereo not drawn) [compound 399, 4-[3-(difluoromethyl)piperidin-1-yl]-1-(4-fluorophenyl)-3-(propan-2-yl)-1H-pyrazolo[3,4-b]pyridine-6-carboxylic acid]",137.6%,0.824 µM,336.55%,0.475 µM
"CC(C)c1nn(-c2ccc(F)cc2)c2nc(C(=O)O)cc(N3CC4(CCCOC4)C3)c12 [compound 400, 1-(4-fluorophenyl)-4-(6-oxa-2-azaspiro[3.5]nonan-2-yl)-3-(propan-2-yl)-1H-pyrazolo[3,4-b]pyridine-6-carboxylic acid]",111.35%,1.35 µM,283.65%,0.98 µM
"CC(C)c1nn(-c2ccc(F)cc2)c2nc(C(=O)O)cc(N3CCC4(CCCO4)CC3)c12 [compound 401, 1-(4-fluorophenyl)-4-(1-oxa-8-azaspiro[4.5]decan-8-yl)-3-(propan-2-yl)-1H-pyrazolo[3,4-b]pyridine-6-carboxylic acid]",136.97%,1.1 µM,306.07%,0.653 µM
"CC(C)c1nn(C2CCCCC2)c2nc(C(=O)O)cc(C3=CC(C)(C)OC(C)(C)C3)c12 [compound 402, 1-cyclohexyl-3-(propan-2-yl)-4-(2,2,6,6-tetramethyl-3,6-dihydro-2H-pyran-4-yl)-1H-pyrazolo[3,4-b]pyridine-6-carboxylic acid]",43.815%,0.715 µM,214.5%,1.11 µM
"COCCC1CCN(c2cc(C(=O)O)nc3c2c(C2CCC2)nn3-c2ccccc2)CC1 [compound 403, 3-cyclobutyl-4-[4-(2-methoxyethyl)piperidin-1-yl]-1-phenyl-1H-pyrazolo[3,4-b]pyridine-6-carboxylic acid]",293.4%,0.408 µM,507.25%,0.311 µM
"O=C(O)c1cc(N2CC3(CCCC3)C2)c2c(C3CCC3)nn(-c3ccccc3)c2n1 [compound 404, 4-(2-azaspiro[3.4]octan-2-yl)-3-cyclobutyl-1-phenyl-1H-pyrazolo[3,4-b]pyridine-6-carboxylic acid]",104.91%,0.91 µM,275.95%,0.849 µM
"COCC1CCN(c2cc(C(=O)O)nc3c2c(C2CCC2)nn3-c2ccccc2)CC1 [compound 405, 3-cyclobutyl-4-[4-(methoxymethyl)piperidin-1-yl]-1-phenyl-1H-pyrazolo[3,4-b]pyridine-6-carboxylic acid]",298.75%,0.347 µM,512.4%,0.226 µM
"O=C(O)c1cc(N2CC3CC3C2)c2c(C3CCC3)nn(-c3ccccc3)c2n1 (stereo not drawn) [compound 406, 4-(3-azabicyclo[3.1.0]hexan-3-yl)-3-cyclobutyl-1-phenyl-1H-pyrazolo[3,4-b]pyridine-6-carboxylic acid]",182.5%,0.823 µM,359.55%,0.641 µM
"O=C(O)c1cc(OCC2CCCCC2)c2c(C3CCC3)nn(-c3ccccc3)c2n1 [compound 407, 3-cyclobutyl-4-(cyclohexylmethoxy)-1-phenyl-1H-pyrazolo[3,4-b]pyridine-6-carboxylic acid]",125.25%,0.925 µM,323.95%,0.662 µM
"O=C(O)c1cc(N2CCCCC2)c2c(C3CCC3)nn(-c3ccccc3)c2n1 [compound 408, 3-cyclobutyl-1-phenyl-4-(piperidin-1-yl)-1H-pyrazolo[3,4-b]pyridine-6-carboxylic acid]",141.15%,0.932 µM,346.95%,0.617 µM
"O=C(O)c1cc(N2CC3(CCCCC3)C2)c2c(C3CCC3)nn(-c3ccccc3)c2n1 [compound 409, 4-(2-azaspiro[3.5]nonan-2-yl)-3-cyclobutyl-1-phenyl-1H-pyrazolo[3,4-b]pyridine-6-carboxylic acid]",75.39%,1.07 µM,249.3%,1.11 µM
"N#CC1CCN(c2cc(C(=O)O)nc3c2c(C2CCC2)nn3-c2ccccc2)CC1 [compound 410, 4-(4-cyanopiperidin-1-yl)-3-cyclobutyl-1-phenyl-1H-pyrazolo[3,4-b]pyridine-6-carboxylic acid]",155.63%,0.557 µM,317.5%,0.228 µM
"CS(=O)(=O)C1CCN(c2cc(C(=O)O)nc3c2c(C2CCC2)nn3-c2ccccc2)CC1 [compound 411, 3-cyclobutyl-4-[4-(methanesulfonyl)piperidin-1-yl]-1-phenyl-1H-pyrazolo[3,4-b]pyridine-6-carboxylic acid]",280.85%,3.34 µM,456%,0.976 µM
"COC1CCN(c2cc(C(=O)O)nc3c2c(C(C)C)nn3-c2ccnc(N3CCCC3)c2)CC1 [compound 412, 4-(4-methoxypiperidin-1-yl)-3-(propan-2-yl)-1-[2-(pyrrolidin-1-yl)pyridin-4-yl]-1H-pyrazolo[3,4-b]pyridine-6-carboxylic acid]",215.6%,0.46 µM,387.2%,0.307 µM
"N#CC1CCN(c2ccc(-c3cc(C(=O)O)nc4c3c(C3CCC3)nn4-c3ccnc(N4CCCC4)c3)cn2)CC1 [compound 413, 4-[6-(4-cyanopiperidin-1-yl)pyridin-3-yl]-3-cyclobutyl-1-[2-(pyrrolidin-1-yl)pyridin-4-yl]-1H-pyrazolo[3,4-b]pyridine-6-carboxylic acid]",216.65%,0.527 µM,392.2%,0.338 µM
"O=C(O)c1cc(OCCC2CCOCC2)c2c(C3CCC3)nn(-c3ccccc3)c2n1 [compound 414, 3-cyclobutyl-4-[2-(oxan-4-yl)ethoxy]-1-phenyl-1H-pyrazolo[3,4-b]pyridine-6-carboxylic acid]",120.3%,0.692 µM,295.15%,0.373 µM
"O=C(O)c1cc(OC[C@@H](F)C2CCOCC2)c2c(C3CCC3)nn(-c3ccccc3)c2n1 [compound 415, 3-cyclobutyl-4-[(2S)-2-fluoro-2-(oxan-4-yl)ethoxy]-1-phenyl-1H-pyrazolo[3,4-b]pyridine-6-carboxylic acid]",168.85%,0.487 µM,334.35%,0.249 µM
"N#CC1CCN(c2ccc(-c3cc(C(=O)O)nc4c3c(C3CCC3)nn4-c3ccnc(N4CCOCC4)c3)cn2)CC1 [compound 416, 4-[6-(4-cyanopiperidin-1-yl)pyridin-3-yl]-3-cyclobutyl-1-[2-(morpholin-4-yl)pyridin-4-yl]-1H-pyrazolo[3,4-b]pyridine-6-carboxylic acid]",179.1%,1.25 µM,369.5%,0.785 µM
"O=C(O)c1cc(OCC2CCOCC2)c2c(C3CCC3)nn(-c3ccccc3)c2n1 [compound 417, 3-cyclobutyl-4-[(oxan-4-yl)methoxy]-1-phenyl-1H-pyrazolo[3,4-b]pyridine-6-carboxylic acid]",134.8%,0.546 µM,322%,0.318 µM
"COCC1CN(c2cc(C(=O)O)nc3c2c(C2CCC2)nn3-c2ccccc2)C1 [compound 418, 3-cyclobutyl-4-[3-(methoxymethyl)azetidin-1-yl]-1-phenyl-1H-pyrazolo[3,4-b]pyridine-6-carboxylic acid]",144.95%,1.22 µM,342.25%,0.598 µM
